{
  "source": "patent US10370376B2",
  "about": "“Amorphous substance of Idelalisib and preparation method therefor” (Alnova Pharmaceuticals, Ltd., priority 2015, dated 2019)",
  "type_in_all_cases": "physicochemical",
  "key": {"[1]": {"experiment": "Determination of apparent solubility (saturation solubility by HPLC) in diluents of different pH", "conditions": "pH 4.5 diluent, 37° C., shaken 12 hours, average of 3"}, "[2]": {"experiment": "Determination of apparent solubility (saturation solubility by HPLC) in diluents of different pH", "conditions": "for solubility at 12 h: 37 °C, thermodynamic from solid; for solubility at 12 h / Apparent solubility: shaken 12 hours, average of 3; for Apparent solubility: 37° C.", "protocol": "The crystalline Idelalisib, Form I, was prepared according to the method of Example 1 of U.S. Pat. No. 8,865,730.\nDetermination of apparent solubility: weigh a certain amount of the sample into a 1.8 mL of centrifuge tube, add 1 mL of the specified pH diluent, cap tightly. Each solution was prepared with 3 replicates (the amount of the added sample must be much larger than of which can be formed a saturated solution at different pH, details were shown in Table 1), and then 1 mL of the designated pH diluent was added. Then the centrifuge tube containing the test solution was shaken in a water bath at 37° C.±0.5° C. for 12 hours, let Stand in an oven at 37° C. for 2 hours. The upper lay was filtered through a […] microporous membrane. Pipette 200 uL of the filtrated solution into a vial containing 200 uL of acetonitrile, shaken to mix. Label it as test solution. Inject 2 uL of the test solution to HPLC system, record the peak area of main peak. Inject the reference standard solution following the same procedure as the test solution, record the peak area of the main peak of reference standard. According to the main peak area of the test solution and the reference solution, the concentration of the reference solution and the concentration of the test solution are calculated by external standard method. Then the saturation solubility will be obtained by multiplying concentration by the dilution factor of 2. The final result of saturation solubility is the average result of three parallel test samples.\nPreparation of reference standard solution: accurately weight about 25 mg of Idelalisib (Form I) into a 25 mL of volumetric flask, dissolve and dilute to the volume with diluent (acetonitrile:water=1:1). The concentration of the reference standard is about 1 mg/mL.\nPreparation of Diluents of Different pH:\n(1) pH=1.0 diluent: Add 9 mL of concentrated HCl to a 1000 mL of volumetric flask, diluted to the volume with water.\n(2) pH=2.0 diluent: Solution A: Transfer 16.6 mL of phosphoric acid to a 100 mL volumetric flask, dilute to the volume with water, shake to mix. Solution B: Weigh and transfer 71.63 g of […] to a 1000 mL of volumetric flask, dilute to the volume with water, dissolve and mix well. Mix 72.5 mL of solution A and 27.5 mL of solution B.\n(3) pH=3.0 diluent: transfer 50 mL of glacial acetic acid to a 1000 mL of volumetric flask, add 800 mL of water, adjust pH to 3.0 with lithium hydroxide, then diluted to the volume with water.\n(4) pH=4.0 diluent: weigh and transfer 7.7 g of ammonium acetate, dissolve with 50 mL of water, add 6 mL of glacial acetic acid, then diluted to 100 mL with water.\n(5) pH=5.6 diluent: Phthalate buffer (pH 5.6): Transfer 10 g of potassium hydrogen phthalate, add 900 mL of water, stir to dissolve, adjust pH to 5.6 with sodium hydroxide solution (or diluted hydrochloric acid if necessary) then diluted to the volume with water.\n(6) pH=6.8 diluent: mix 250 mL of 0.2 mol/L potassium dihydrogen phosphate solution and 118 mL of 0.2 mol/L sodium hydroxide solution, diluted to 1000 mL with water, shaken to mix.\n(7) pH=7.4 diluent: transfer 1.36 g of potassium dihydrogen phosphate, add 79 mL of 0.1 mol/L sodium hydroxide solution, diluted to 200 mL with water."}, "[3]": {"experiment": "Impact factor test of the amorphous Idelalisib (high temperature, high humidity; HPLC and XRPD)"}, "[4]": {"experiment": "Accelerated stability test of the amorphous Idelalisib (HPLC and XRPD)", "conditions": "for Crystalline (XRPD) / Relevant substances (Total impurities %): Temperature 40° C. ± 2° C., Humidity 75% ± 5%", "protocol": "Experiment conditions: temperature 40° C.±2° C., humidity 75%±5% The substance was detected by HPLC."}, "[5]": {"conditions": "high temperature, high humidity after 10 days"}, "[6]": {"conditions": "accelerated test conditions after 6 months"}},
  "data": [
    {"smiles": "CC[C@H](Nc1ncnc2[nH]cnc12)c1nc2cccc(F)c2c(=O)n1-c1ccccc1", "note": "[amorphous Idelalisib, 5-fluoro-3-phenyl-2-[(1S)-1-(9H-purin-6-ylamino)propyl]-4(3H)-quinazolinone]", "values": [
      {"measurement": "Apparent solubility", "setting": "[1]", "result": 0.69419, "unit": "mg/mL"},
      {"measurement": "Apparent solubility compared with that of the Form I", "setting": "[2]; at each pH (1.0 to 7.4)", "result": "significantly higher"},
      {"measurement": "solubility at 12 h", "setting": "[2]; pH 1.0 diluent (dilute HCl), pH 1, simulated gastric fluid, pH 1.0 diluent", "result": 52.7, "unit": "mg/mL"},
      {"measurement": "Apparent solubility", "setting": "[2]; pH 2.0 diluent", "result": 7.03794, "unit": "mg/mL"},
      {"measurement": "Apparent solubility", "setting": "[2]; pH 3.0 diluent", "result": 1.62295, "unit": "mg/mL"},
      {"measurement": "solubility at 12 h", "setting": "[2]; pH 5.6 diluent (phthalate buffer), pH 5.6, aqueous buffer, pH 5.6 diluent", "result": 0.0757, "unit": "mg/mL"},
      {"measurement": "solubility at 12 h", "setting": "[2]; pH 6.8 diluent (phosphate buffer), pH 6.8, aqueous buffer, pH 6.8 diluent", "result": 0.0753, "unit": "mg/mL"},
      {"measurement": "solubility at 12 h", "setting": "[2]; pH 7.4 diluent (phosphate buffer), pH 7.4, aqueous buffer, pH 7.4 diluent", "result": 0.0743, "unit": "mg/mL"},
      {"measurement": "Crystalline (XRPD)", "setting": "[3]; 0 day", "result": "There is no peak of crystalline Idelalisib"},
      {"measurement": "Relevant substances (Total impurities %)", "setting": "[3]; 0 day", "result": 0.12, "unit": "%"},
      {"measurement": "Relevant substances (Total impurities %)", "setting": "[3]; 5 days, Humidity 75% ± 5%", "result": 0.14, "unit": "%"},
      {"measurement": "Relevant substances (Total impurities %)", "setting": "[3]; 5 days, Humidity 90% ± 5%", "result": 0.16, "unit": "%"},
      {"measurement": "Relevant substances (Total impurities %)", "setting": "[3]; 5 days, Temperature 40° C. ± 2° C.", "result": 0.13, "unit": "%"},
      {"measurement": "Relevant substances (Total impurities %)", "setting": "[3]; 5 days, Temperature 60° C. ± 2° C.", "result": 0.14, "unit": "%"},
      {"measurement": "Crystalline (XRPD)", "setting": "[3]; 5 days, all four conditions (40° C., 60° C., humidity 75%, 90%)", "result": "There is no peak of crystalline Idelalisib"},
      {"measurement": "Relevant substances (Total impurities %)", "setting": "[3]; 10 days, Humidity 75% ± 5%", "result": 0.14, "unit": "%"},
      {"measurement": "Relevant substances (Total impurities %)", "setting": "[3]; 10 days, Humidity 90% ± 5%", "result": 0.16, "unit": "%"},
      {"measurement": "Relevant substances (Total impurities %)", "setting": "[3]; 10 days, Temperature 40° C. ± 2° C.", "result": 0.14, "unit": "%"},
      {"measurement": "Relevant substances (Total impurities %)", "setting": "[3]; 10 days, Temperature 60° C. ± 2° C.", "result": 0.16, "unit": "%"},
      {"measurement": "Crystalline (XRPD)", "setting": "[3]; 10 days, all four conditions (40° C., 60° C., humidity 75%, 90%)", "result": "There is no peak of crystalline Idelalisib"},
      {"measurement": "Changes in the relevant substances", "setting": "[3]; [5]", "result": "no significant changes"},
      {"measurement": "Crystallization of Idelalisib", "setting": "[3]; [5]", "result": "no crystallization of Idelalisib was observed"},
      {"measurement": "Crystalline (XRPD)", "setting": "[4]; 0 month", "result": "There is no peak of crystalline Idelalisib"},
      {"measurement": "Relevant substances (Total impurities %)", "setting": "[4]; 0 month", "result": 0.12, "unit": "%"},
      {"measurement": "Crystalline (XRPD)", "setting": "[4]; 1 month", "result": "There is no peak of crystalline Idelalisib"},
      {"measurement": "Relevant substances (Total impurities %)", "setting": "[4]; 1 month", "result": 0.14, "unit": "%"},
      {"measurement": "Crystalline (XRPD)", "setting": "[4]; 2 months", "result": "There is no peak of crystalline Idelalisib"},
      {"measurement": "Relevant substances (Total impurities %)", "setting": "[4]; 2 months", "result": 0.15, "unit": "%"},
      {"measurement": "Crystalline (XRPD)", "setting": "[4]; 3 months", "result": "There is no peak of crystalline Idelalisib"},
      {"measurement": "Relevant substances (Total impurities %)", "setting": "[4]; 3 months", "result": 0.16, "unit": "%"},
      {"measurement": "Crystalline (XRPD)", "setting": "[4]; 6 months", "result": "There is no peak of crystalline Idelalisib"},
      {"measurement": "Relevant substances (Total impurities %)", "setting": "[4]; 6 months", "result": 0.19, "unit": "%"},
      {"measurement": "Changes in the relevant substances", "setting": "[4]; [6]", "result": "no significant changes"},
      {"measurement": "Crystallization of Idelalisib", "setting": "[4]; [6]", "result": "no crystallization of Idelalisib was observed"}
    ]},
    {"smiles": "CC[C@H](Nc1ncnc2[nH]cnc12)c1nc2cccc(F)c2c(=O)n1-c1ccccc1", "note": "[crystalline Idelalisib (Form I), 5-fluoro-3-phenyl-2-[(1S)-1-(9H-purin-6-ylamino)propyl]-4(3H)-quinazolinone, reference compound]", "values": [
      {"measurement": "Apparent solubility", "setting": "[1]", "result": 0.14702, "unit": "mg/mL"},
      {"measurement": "Apparent solubility", "setting": "[2]; pH 1.0 diluent", "result": 34.58016, "unit": "mg/mL"},
      {"measurement": "Apparent solubility", "setting": "[2]; pH 2.0 diluent", "result": 1.75655, "unit": "mg/mL"},
      {"measurement": "Apparent solubility", "setting": "[2]; pH 3.0 diluent", "result": 0.31747, "unit": "mg/mL"},
      {"measurement": "Apparent solubility", "setting": "[2]; pH 5.6 diluent", "result": 0.04691, "unit": "mg/mL"},
      {"measurement": "Apparent solubility", "setting": "[2]; pH 6.8 diluent", "result": 0.04735, "unit": "mg/mL"},
      {"measurement": "Apparent solubility", "setting": "[2]; pH 7.4 diluent", "result": 0.04508, "unit": "mg/mL"}
    ]}
  ]
}
